Among the test systems are ACHN renal; CAKI-1 renal; CCRF-CEM leukemia; HOP-62 NSCLC; HOP-92 NSCLC; HT29 colon; IGROV1 ovarian; K-562 leukemia; MDA-MB-435; NCI-H522 lung; NCI/ADR-RES ovarian; OVCAR-3 ovarian; SF-268 CNS; SK-OV-3 ovarian; T-47D breast; U251 CNS; HL-60(TB) leukemia.
Holding throughout (assay): NCI-60 cell line screen, 48 h

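96-well plates; 48 h exposure; 5 concentrations. Endpoints by linear interpolation between flanking doses. Not reached: highest tested concentration assigned. TGI is the concentration that stops growth completely.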

Regarding `S=c1[nH]nc(Cn2c3ccc(Br)cc3c3nc4ccccc4nc32)o1`, the TGI in the assay with ACHN renal is greater than 100 µM; in the assay with CAKI-1 renal it was greater than 100 µM; with CCRF-CEM leukemia, greater than 100 µM; with HOP-62 NSCLC, 99.2 µM; in the assay with HOP-92 NSCLC, 47 µM; in the assay with HT29 colon it was greater than 100 µM. For the same molecule, the TGI in the assay with IGROV1 ovarian is greater than 90.2 µM; with K-562 leukemia, greater than 100 µM; with MDA-MB-435 it was greater than 31.6 µM; in the assay on NCI-H522 lung, 69.6 µM; in the assay on NCI/ADR-RES ovarian, greater than 100 µM; in the assay on OVCAR-3 ovarian, greater than 73.7 µM. Further, the TGI in the assay with SF-268 CNS is greater than 100 µM; in the assay on SK-OV-3 ovarian it was greater than 100 µM; in the assay with T-47D breast, greater than 100 µM; with U251 CNS, greater than 92.4 µM.

On to `CCOc1ccc(NC(=O)C(=O)C(/C(=N/N)C(=O)OC)c2nc3ccc([N+](=O)[O-])cc3[nH]c2=O)cc1` (configuration not stated), for which the TGI in the assay on ACHN renal, with CAKI-1 renal, with CCRF-CEM leukemia, in the assay on HOP-62 NSCLC, with HOP-92 NSCLC and in the assay on HT29 colon was greater than 100 µM throughout. Moreover, the TGI in the assay with IGROV1 ovarian, in the assay on K-562 leukemia, with MDA-MB-435, with NCI-H522 lung, with NCI/ADR-RES ovarian and in the assay with OVCAR-3 ovarian was greater than 100 µM each time. Besides, the TGI in the assay with SF-268 CNS, in the assay on SK-OV-3 ovarian, in the assay with T-47D breast and in the assay with U251 CNS was greater than 100 µM throughout.

Take `C#CCN(C(=O)C(F)(F)F)C(/C=C\C(=O)OC)(C(=O)OCC)C(=O)OCC`: the TGI with ACHN renal, in the assay on CCRF-CEM leukemia, with HL-60(TB) leukemia, in the assay with HOP-62 NSCLC, with HT29 colon and with IGROV1 ovarian was greater than 100 µM each time. Also, the TGI in the assay on K-562 leukemia, in the assay on MDA-MB-435, in the assay on NCI-H522 lung, with NCI/ADR-RES ovarian, in the assay on OVCAR-3 ovarian and in the assay on SF-268 CNS was greater than 100 µM throughout. The TGI with SK-OV-3 ovarian, in the assay on T-47D breast and in the assay with U251 CNS was greater than 100 µM in each case.

Take `CCCCCCCCCCCCCCCCOP(=O)([O-])OCC[N+](C)(C)C1CC(C)(C)N(O)C(C)(C)C1`: the TGI in the assay on ACHN renal, in the assay with CAKI-1 renal, with HOP-62 NSCLC, in the assay on HOP-92 NSCLC, in the assay on HT29 colon and in the assay with MDA-MB-435 was greater than 100 µM throughout. The TGI with NCI-H522 lung, in the assay with NCI/ADR-RES ovarian, in the assay on OVCAR-3 ovarian, in the assay with SF-268 CNS, with SK-OV-3 ovarian and with T-47D breast was greater than 100 µM each time. The same molecule yielded a TGI with U251 CNS greater than 100 µM.

On to `COC(=O)[C@@H]1Cc2ccc(OC)c(c2)OCCC(=O)N1`, for which the TGI with ACHN renal, in the assay on CAKI-1 renal, with CCRF-CEM leukemia, in the assay on HOP-62 NSCLC, in the assay with HT29 colon and with IGROV1 ovarian was greater than 100 µM in each case. The TGI in the assay with K-562 leukemia, with MDA-MB-435, in the assay with NCI-H522 lung, with NCI/ADR-RES ovarian, in the assay with OVCAR-3 ovarian and with SF-268 CNS was greater than 100 µM in each case. Besides, the TGI with SK-OV-3 ovarian, in the assay with T-47D breast and in the assay with U251 CNS was greater than 100 µM in each case.

Regarding `Cc1cn([C@H]2C[C@@H](N3C(=O)c4ccccc4C3=O)[C@@H](CO[Si](C)(C)C(C)(C)C)O2)c(=O)[nH]c1=O`, the TGI with ACHN renal is greater than 100 µM; in the assay with CAKI-1 renal, greater than 100 µM; with CCRF-CEM leukemia it was greater than 100 µM; in the assay on HOP-62 NSCLC, 61.4 µM; in the assay on HOP-92 NSCLC, greater than 100 µM; in the assay with HT29 colon, 51.7 µM. Further, the TGI in the assay with IGROV1 ovarian, with K-562 leukemia, in the assay with MDA-MB-435, with NCI-H522 lung, in the assay with NCI/ADR-RES ovarian and in the assay on OVCAR-3 ovarian was greater than 100 µM throughout. The TGI with SF-268 CNS, in the assay with SK-OV-3 ovarian, in the assay on T-47D breast and with U251 CNS was greater than 100 µM throughout.

In the case of `CC1(c2ccc(Cl)cc2)C=C(c2ccc(Cl)cc2)C(C#N)=C(C(C#N)C#N)N1` (configuration not stated), the TGI with ACHN renal was 30.5 µM; in the assay with CAKI-1 renal, 32.2 µM; in the assay on CCRF-CEM leukemia it was greater than 100 µM; with HL-60(TB) leukemia it was 41.1 µM; in the assay with HOP-62 NSCLC, 31.9 µM; with HT29 colon, 32.8 µM. For the same molecule, the TGI in the assay on IGROV1 ovarian was 25.6 µM; in the assay with K-562 leukemia it was greater than 100 µM; in the assay on MDA-MB-435, 34.5 µM; in the assay with NCI/ADR-RES ovarian it was 39.9 µM; in the assay with OVCAR-3 ovarian it was 21.3 µM; in the assay with SF-268 CNS, 23.9 µM. Moreover, the figures for the TGI in the assay on SK-OV-3 ovarian, in the assay on T-47D breast and with U251 CNS were 30.8 µM, 46.9 µM and 33 µM, respectively.

Consider `COC(=O)c1sc(=S)sc1SCc1cccc(CSc2sc(=S)sc2C(=O)OC)c1`, for which the TGI with ACHN renal is greater than 100 µM; in the assay on CAKI-1 renal it was greater than 100 µM; in the assay on CCRF-CEM leukemia it was greater than 100 µM; in the assay with HOP-62 NSCLC, 67.1 µM; in the assay with HOP-92 NSCLC it was 71.2 µM; with HT29 colon, greater than 100 µM. The TGI in the assay with IGROV1 ovarian, with K-562 leukemia, in the assay with MDA-MB-435, in the assay with NCI-H522 lung, with NCI/ADR-RES ovarian and in the assay with OVCAR-3 ovarian was greater than 100 µM throughout. Also, the TGI in the assay on SF-268 CNS is greater than 100 µM; with SK-OV-3 ovarian it was 51.3 µM; with T-47D breast, greater than 100 µM; with U251 CNS, greater than 100 µM.

Turning to `O=C(NC1CCCCC1)c1n[nH]nc1Cl`, the TGI in the assay on ACHN renal, with CAKI-1 renal, in the assay with CCRF-CEM leukemia, with HOP-62 NSCLC, in the assay on HOP-92 NSCLC and with HT29 colon was greater than 100 µM in each case. For the same molecule, the TGI with IGROV1 ovarian, with K-562 leukemia, in the assay on MDA-MB-435, in the assay on NCI/ADR-RES ovarian, in the assay on OVCAR-3 ovarian and in the assay on SF-268 CNS was greater than 100 µM in each case. Further, the TGI with SK-OV-3 ovarian, with T-47D breast and with U251 CNS was greater than 100 µM in each case.

The values above are taken from PubChem BioAssay (NCI).
